# “And” between values parts separate entries of the source, which are not always exact repeats. Equal values may be shown once. “Also recorded” adds a separate entry of the source.
# Assays:
# [1] = biological target: T1, mouse eugenol OR (mOR-EG) (Mus musculus, UniProt Q920P2); assay: mOR-EG/AC Ca2+ imaging: mOR-EG + Gαolf + CNGC-camp in HEK293T cells; format: cell-based
# T1 sequence (Q920P2 1-313): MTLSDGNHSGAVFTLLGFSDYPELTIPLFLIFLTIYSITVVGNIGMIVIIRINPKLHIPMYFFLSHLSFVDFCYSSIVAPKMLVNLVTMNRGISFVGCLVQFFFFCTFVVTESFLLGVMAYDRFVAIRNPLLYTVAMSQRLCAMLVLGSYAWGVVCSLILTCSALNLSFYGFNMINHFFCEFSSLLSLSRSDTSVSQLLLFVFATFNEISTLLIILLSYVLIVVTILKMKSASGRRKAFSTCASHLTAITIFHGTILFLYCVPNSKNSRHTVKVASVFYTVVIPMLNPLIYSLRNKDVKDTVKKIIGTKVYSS
# [2] = biological target: T1, mouse eugenol OR (mOR-EG); assay: mOR-EG/PLC Ca2+ imaging: mOR-EG + Gα15 in HEK293T cells; format: cell-based
# [3] = biological target: T1, mouse eugenol OR (mOR-EG); assay: dual read-out assay, mOR-EG/PLC and mOR-EG/AC responses compared; format: cell-based
# [4] = biological target: T1, mouse eugenol OR (mOR-EG); assay: mOR-EG/PLC Ca2+ response in MMDD1 macula densa cells; format: cell-based; conditions: range and mean
# HEK293T cells = assay: control HEK293T cells lacking components of the read-out; format: cell-based
# AgOR65+AgOrco = assay: Ca2+ response of HEK293T cells expressing mosquito OR AgOR65+AgOrco; format: cell-based, A. gambiae; conditions: 1μM, 5-s stimulation
# [5] = biological target: T1, mouse eugenol OR (mOR-EG); format: cell-based; conditions: up to 1 mM
# mOR-EG = conditions: incubation at least 15 min; ref [22]; cited from earlier work
# [6] = pH7; source not stated; cited from earlier work
# [7] = 100μM, range over cells and mean±SEM
# [8] = cumulative concentration-dependence
smiles,measurement,setting,value
C=CCc1ccc(O)c(OC)c1 [eugenol],EC50,[1],53 ± 11 µM
same,"Tdecay, mOR-EG/AC response",[1]; [7],102 ± 11 s and 101.9 ± 10.9 s
same,"Tpeak, mOR-EG/AC response",[1]; [7],76 ± 6 s and 75.9 ± 6.1 s
same,"Trise, mOR-EG/AC response",[1]; [7],32 ± 3 s and 32.2 ± 3.0 s
same,"Ca2+ response on removal of extracellular Ca2+, mOR-EG/Gαs(olf) cells",[1]; 1mM,completely abolished the response
same,"Tdecay, mOR-EG/AC response",[1]; 5mM,125.1 ± 4.9 s
same,"Tpeak, mOR-EG/AC response",[1]; 5mM,90.5 ± 2.9 s
same,"Trise, mOR-EG/AC response",[1]; 5mM,38.5 ± 1.5 s
same,"Hill coefficient, mOR-EG/AC response",[1]; [8],0.97
same,"decay time 90% to 10%, AC-dependent Ca2+ response",[1]; saturating response parameters,128.2 ± 4.9 s
same,"time of peak, AC-dependent Ca2+ response",[1]; saturating response parameters,90.5 ± 4.4 s
same,"time to rise 10% to 90%, AC-dependent Ca2+ response",[1]; saturating response parameters,39.4 ± 2.2 s
same,"Tdecay, mOR-EG/PLC response",[2]; 25μM,35.0 ± 0.8 s
same,"Tpeak, mOR-EG/PLC response",[2]; 25μM,18.6 ± 0.8 s
same,"Trise, mOR-EG/PLC response",[2]; 25μM,10.8 ± 0.9 s
same,"Tdecay, mOR-EG/PLC response",[2]; [7],49.4 ± 1.8 s
same,"Tpeak, mOR-EG/PLC response",[2]; [7],31.5 ± 0.7 s
same,"Trise, mOR-EG/PLC response",[2]; [7],8.4 ± 0.3 s
same,"Tpeak, mOR-EG/PLC response",[2]; 1mM,15.4 ± 0.4 s
same,"Ca2+ response on removal of extracellular Ca2+, mOR-EG/Gα15 cells","[2]; 1mM, 5-s pulse",otherwise not affecting the Ca^2+ response
same,"Tdecay, mOR-EG/PLC response",[2]; 5mM,57.9 ± 3.8 s
same,"Trise, mOR-EG/PLC response",[2]; 5mM,5.6 ± 0.3 s
same,"Hill coefficient, mOR-EG/PLC response",[2]; [8],1.2
same,"decay time 90% to 10%, PLC-dependent Ca2+ response",[2]; saturating response parameters,52.6 ± 1.1 s
same,"time of peak, PLC-dependent Ca2+ response",[2]; saturating response parameters,15.4 ± 0.4 s
same,"time to rise 10% to 90%, PLC-dependent Ca2+ response",[2]; saturating response parameters,7.6 ± 0.2 s
same,functional bias between PLC and AC pathways (in words),[3]; pair-wise comparison of EC50 values,activated both pathways with similar EC50 values
same,"Tpeak, mOR-EG/PLC response",[4],13 ± 0.8 s
same,Ca2+ response in untransfected cells or cells expressing mOR-EG alone,"HEK293T cells; 0.5-5mM, n>1000",Neither untransfected HEK293T cells nor cells expressing mOR-EG alone were sensitive
same,Ca2+ response in cells expressing mOR-EG and Gαolf without CNGC-camp,"HEK293T cells; eugenol 0.5-2mM, forskolin 20μM, n>500",did not generate noticeable Ca^2+ responses
same,response kinetics vs mOR-EG responses,AgOR65+AgOrco,much faster response
same,slow Gαs(olf)-dependent response in dual-response cells,[5],obvious in the signal evoked by eugenol
C/C=C/c1ccc(OC)c(OC)c1 [methyl isoeugenol],antagonism of eugenol-evoked Ca2+ response,"[3]; 1mM with 100 μM eugenol, both mOR-EG/Gα15 and mOR-EG/Gαs(olf) cells",completely eliminated Ca^2+ response; also recorded: potent antagonist that inhibits eugenol activation of both the mOR-EG/PLC and mOR-EG/AC responses
same,AC-/PLC- mediated Ca2+ response (result in words),"[3]; both read-outs, up to 1-5 mM","failed to activate any response; also recorded: did not evoke any appreciable Ca^2+ signal; also recorded: does not activate either pathway; also recorded: non agonist, antagonist"
same,response to prolonged application,[3]; data not shown,did not evoke any measurable response
same,agonist activity in cAMP-dependent Cre reporter assay,mOR-EG,strong agonist
same,solubility,[6],3.6/3.05 mmol/l
